According to US20250290117A1, “MOLECULAR PHENOTYPIC ANTIMICROBIAL SUSCEPTIBILITY TESTING” (priority 2024, published 2025):

Experiments:
pathogen of the specimen = assay: Molecular phenotypic antimicrobial susceptibility test with direct PCR at various incubation timepoints (Table 7); format: cell-based
Protocol: Detection of Molecular Phenotypic Antimicrobial Susceptibility. Disclosed herein are the methods for the detection of phenotypic antimicrobial susceptibility via molecular methods. The present invention describes how a specimen 100 with a known microbial load is incubated and then exposed to a panel of antimicrobial agents to determine sensitivity (prevention of growth) or resistance (allowance of growth) to the specific antimicrobial agents tested utilizing molecular methods. Sample Collection. Specimens 100 are collected from patients using sterile collection processes that are employed in routine clinical care. Specimens are transported to the testing facility in boric acid preservative. […] The process for pathogen isolation includes steps of harvesting the pathogen (e.g., via centrifugation), isolating pathogen DNA via a DNA isolation and/or purification kit, and performing PCR on the pathogen DNA via PCR components (e.g., primers, enzymes, buffers) as would be known to the skilled artisan. […] This aliquot is used for antimicrobial susceptibility testing if indicated based on the pathogen detection results. […] Specimens 100 with lower pathogen loads could also be utilized in the antibiotic susceptibility phase of testing with or without a longer incubation period. […] Antimicrobial solutions are prepared at known concentrations. The specific antimicrobials and their concentrations are selected based on the pathogen of interest and the described antimicrobial resistance breakpoints for that specimen pathogen and antimicrobial combination. These antimicrobials have been selected based on those commonly utilized by healthcare providers in routine clinical care for the specific type of suspected infection. The number and types of antimicrobials utilized can be customized based on the infection source, pathogen detected, patient-specific factors such as allergies or other health conditions (e.g., chronic kidney disease or concurrent medication use), or healthcare provider preferences such as antimicrobial availability or cost. The antimicrobial solutions are prepared in liquid culture media (such as Muller Hinton Broth) to achieve the desired antimicrobial concentration and are then stored at −80° C. until use. For a given specimen, each antimicrobial is tested at a single or multiple antimicrobial concentration(s) which is its established breakpoints for sensitivity. The antimicrobial solutions are prepared and plated out for each specific pathogen. […] This allows for evaluation of pathogen load when no antimicrobial is present. Specimen Exposure to Antimicrobial Agents. The 1 mL aliquot of the specimen 100 previously mixed with culture media and incubated is obtained. Using optical density measurements as a guide, the specimen 100 is diluted to 0.5 McFarland. […] Antimicrobial exposure plates are typically placed into an incubator for 12-16 hours. […] Nucleic Acid Amplification of Antimicrobial Agent Exposed Pathogens. The antimicrobial exposure plate is removed after the period of incubation. The specimen then undergoes a purification or lysis step. For example, the specimen may undergo a purification step (e.g., magnetic bead-based or other separation protocol to isolate genetic material). In another example, the specimen may undergo a cell lysis step. For example, buffer (e.g., lysis buffer) may be added and incubated in the thermal cycler for preparation for direct PCR. Next, the specimen may undergo a polymerase chain reaction (PCR) testing protocol, whereby a semi-quantitative PCR method is utilized. This may be completed either with or without a specific extraction protocol step. The pathogens can be individually targeted and detected, or a universal genetic sequence can be utilized to detect the antimicrobial susceptibility of the specimen as a whole. The control wells are utilized as a threshold for determining antimicrobial sensitivity or resistance. […] Antimicrobial Susceptibility Result Interpretation.

E. coli = assay: Molecular phenotypic antimicrobial susceptibility test, specimen with two detected pathogens incubated together without isolation; format: cell-based, Escherichia coli; settings: E. coli in specimen with two detected pathogens (E. coli and M. morganii) incubated together; for Ct of Sensitive Breakpoint: Ct of controls (average) 15.93; for Molecular Antimicrobial Susceptibility Result: at sensitive breakpoint
Protocol: Detection of Molecular Phenotypic Antimicrobial Susceptibility. Disclosed herein are the methods for the detection of phenotypic antimicrobial susceptibility via molecular methods. The present invention describes how a specimen 100 with a known microbial load is incubated and then exposed to a panel of antimicrobial agents to determine sensitivity (prevention of growth) or resistance (allowance of growth) to the specific antimicrobial agents tested utilizing molecular methods.
Sample Collection. Specimens 100 are collected from patients using sterile collection processes that are employed in routine clinical care. Specimens are transported to the testing facility in boric acid preservative. Specimens 100 are subsequently divided into a first sample 104 and a second sample 108.
Preparation of the Specimens for Testing. The specimens 100 are put through a pathogen identification process using PCR technology (e.g., using the first sample 104). The process for pathogen isolation includes steps of harvesting the pathogen (e.g., via centrifugation), isolating pathogen DNA via a DNA isolation and/or purification kit, and performing PCR on the pathogen DNA via PCR components (e.g., primers, enzymes, buffers) as would be known to the skilled artisan. Simultaneously, an additional aliquot of the same specimen (e.g., the second sample 108) is placed with liquid culture media and incubated for 4-6 hours. This aliquot is used for antimicrobial susceptibility testing if indicated based on the pathogen detection results. After pathogen identification is completed and if more than 10,000 cells/mL of bacteria (e.g., eligible bacteria) are detected in the source specimen, the second sample 108 then enters the antimicrobial susceptibility phase of testing. Specimens 100 with lower pathogen loads could also be utilized in the antibiotic susceptibility phase of testing with or without a longer incubation period.
Preparation of Antimicrobial Susceptibility Testing Plates. Antimicrobial solutions are prepared at known concentrations. The specific antimicrobials and their concentrations are selected based on the pathogen of interest and the described antimicrobial resistance breakpoints for that specimen pathogen and antimicrobial combination. These antimicrobials have been selected based on those commonly utilized by healthcare providers in routine clinical care for the specific type of suspected infection. The number and types of antimicrobials utilized can be customized based on the infection source, pathogen detected, patient-specific factors such as allergies or other health conditions (e.g., chronic kidney disease or concurrent medication use), or healthcare provider preferences such as antimicrobial availability or cost.
The antimicrobial solutions are prepared in liquid culture media (such as Muller Hinton Broth) to achieve the desired antimicrobial concentration and are then stored at −80° C. until use. For a given specimen, each antimicrobial is tested at a single or multiple antimicrobial concentration(s) which is its established breakpoints for sensitivity. The antimicrobial solutions are prepared and plated out for each specific pathogen. This allows ease of use on the day of testing after defrosting the plate 112. Table 1, which illustrates the results of molecular phenotypic antimicrobial susceptibility testing when more than one organism is present in the source specimen, provides an example of an antimicrobial plate 112 prepared for this purpose. Of note, control wells containing only culture media are present on all plates 112. This allows for evaluation of pathogen load when no antimicrobial is present.
Specimen Exposure to Antimicrobial Agents. The 1 mL aliquot of the specimen 100 previously mixed with culture media and incubated is obtained. Using optical density measurements as a guide, the specimen 100 is diluted to 0.5 McFarland. […]

[1] = E. coli isolate 1189, antibiotic incubation time 4 hours
[2] = E. coli isolate 1189, antibiotic incubation time 6 hours
[3] = E. coli isolate 1189, antibiotic incubation time 6 hours, control average Ct 16.992
[4] = E. coli isolate 1189, antibiotic incubation time 8 hours
[5] = E. coli isolate 1189, antibiotic incubation time 10 hours
[6] = E. coli isolate 1189, antibiotic incubation time 12 hours
[7] = E. coli isolate 1189, antibiotic incubation time 12 hours, control average Ct 15.495
[8] = E. coli isolate 1189, antibiotic incubation time 14 hours
[9] = E. coli isolate 1189, antibiotic incubation time 14 hours, control average Ct 15.826
[10] = E. coli isolate 1189, antibiotic incubation time 16 hours
[11] = E. coli isolate 1189, antibiotic incubation time 16 hours, control average Ct 14.880
[12] = E. coli isolate 1189, antibiotic incubation time 4 hours, control average Ct […]
[13] = E. coli isolate 1189, antibiotic incubation time 8 hours, control average Ct […]
[14] = E. coli isolate 1189, antibiotic incubation time 10 hours, control average Ct 15.995

Compound | Molecular Antimicrobial Susceptibility Result (pathogen of the specimen; [1]) | Molecular Antimicrobial Susceptibility Result (pathogen of the specimen; [2]) | Ct at Sensitive Breakpoint (pathogen of the specimen; [3]) | Molecular Antimicrobial Susceptibility Result (pathogen of the specimen; [4]) | Molecular Antimicrobial Susceptibility Result (pathogen of the specimen; [5]) | Molecular Antimicrobial Susceptibility Result (pathogen of the specimen; [6]) | Ct at Sensitive Breakpoint (pathogen of the specimen; [7]) | Molecular Antimicrobial Susceptibility Result (pathogen of the specimen; [8]) | Ct at Sensitive Breakpoint (pathogen of the specimen; [9]) | Molecular Antimicrobial Susceptibility Result (pathogen of the specimen; [10]) | Ct at Sensitive Breakpoint (pathogen of the specimen; [11]) | Ct of Sensitive Breakpoint (E. coli) | Molecular Antimicrobial Susceptibility Result (E. coli) | Ct at Sensitive Breakpoint (pathogen of the specimen; [12]) | Ct at Sensitive Breakpoint (pathogen of the specimen; [13]) | Ct at Sensitive Breakpoint (pathogen of the specimen; [14])
CC1(C)S[C@@H]2[C@H](NC(=O)[C@H](N)c3ccccc3)C(=O)N2[C@H]1C(=O)O [Ampicillin] | Resistant | Resistant | 15.362 | Resistant | Resistant | Resistant | 15.183 | Resistant | 15.465 | Resistant | 15.036 | 15.14 | Resistant |  |  | 
Cc1nnc(SCC2=C(C(=O)O)N3C(=O)[C@@H](NC(=O)Cn4cnnn4)[C@H]3SC2)s1 [Cefazolin] | Resistant | Resistant | 16.328 | Resistant | Resistant | Resistant | 15.126 | Resistant | 17.599 | Resistant | 15.199 | 15.46 | Resistant | 16.209 | 17.305 | 15.756
CO/N=C(\C(=O)N[C@@H]1C(=O)N2C(C(=O)[O-])=C(C[N+]3(C)CCCC3)CS[C@H]12)c1csc(N)n1 [Cefepime] | Sensitive (Antimicrobial wells with pathogen load detected below the control wells (typically >2 cycle thresholds later) may be reported as Sensitive) | Sensitive (Antimicrobial wells with pathogen load detected below the control wells (typically >2 cycle thresholds later) may be reported as Sensitive) | 20.178 | Sensitive (Antimicrobial wells with pathogen load detected below the control wells (typically >2 cycle thresholds later) may be reported as Sensitive) | Sensitive (Antimicrobial wells with pathogen load detected below the control wells (typically >2 cycle thresholds later) may be reported as Sensitive) | Sensitive (Antimicrobial wells with pathogen load detected below the control wells (typically >2 cycle thresholds later) may be reported as Sensitive) | 22.447 | Sensitive (Antimicrobial wells with pathogen load detected below the control wells (typically >2 cycle thresholds later) may be reported as Sensitive) | 22.420 | Sensitive (Antimicrobial wells with pathogen load detected below the control wells (typically >2 cycle thresholds later) may be reported as Sensitive) | 23.502 | 26.80 | Sensitive (Antimicrobial wells with pathogen load detected below the control wells (typically >2 cycle thresholds later) may be reported as Sensitive) | 20.399 | 21.204 | 21.613
CO[C@@]1(NC(=O)Cc2cccs2)C(=O)N2C(C(=O)O)=C(COC(N)=O)CS[C@@H]21 [Cefoxitin] | Resistant | Resistant | 15.865 | Resistant | Resistant | Resistant | 15.750 | Resistant | 15.333 | Resistant | 13.704 | 18.30 | Sensitive (Antimicrobial wells with pathogen load detected below the control wells (typically >2 cycle thresholds later) may be reported as Sensitive) | 17.798 | 16.837 | 14.899
C[C@@H]1O[C@@H]1P(=O)(O)O [Fosfomycin] |  |  |  |  |  |  |  |  |  |  |  | 29.24 | Sensitive (Antimicrobial wells with pathogen load detected below the control wells (typically >2 cycle thresholds later) may be reported as Sensitive) |  |  | 
CN(C)[C@@H]1C(O)=C(C(N)=O)C(=O)[C@@]2(O)C(O)=C3C(=O)c4c(O)cccc4[C@@](C)(O)[C@H]3C[C@@H]12 [Tetracycline] |  |  |  |  |  |  |  |  |  |  |  | 14.55 | Resistant |  |  | 
Ampicillin/Sulbactam |  |  |  |  |  |  |  |  |  |  |  | 14.58 | Resistant |  |  | 
